Reference: ChEMBL document CHEMBL1124217, “2,4-Diamino-5-benzylpyrimidines and analogues as antibacterial agents. 9. Lipophilic trimethoprim analogues as antigonococcal agents” (J Med Chem, 1988)

Legend:
Escherichia coli = experiment: Inhibition of growth of Escherichia coli (CN314) measured as MIC compound/MIC Trimethoprim; type: functional
Klebsiella aerogenes = experiment: Inhibition of growth of Enterobacter aerogenes (2200/186) measured as MIC(compound/MIC Trimethoprim; type: functional
Rattus norvegicus [1] = experiment: Conc in serum of male rat 1 hr after administration of dose; type: functional, organism-based
Rattus norvegicus [2] = experiment: Conc in serum of male rat 24 hr after administration of dose; type: functional, organism-based
Rattus norvegicus [3] = experiment: Conc in stomach of male rat 0.50 hr after administration of dose; type: functional, organism-based
Rattus norvegicus [4] = experiment: Conc in stomach of male rat 1.5h after administration of dose; type: functional, organism-based
Rattus norvegicus [5] = experiment: Conc in stomach of male rat 10h after administration of dose; type: functional, organism-based
Rattus norvegicus [6] = experiment: Conc in stomach of male rat 3h after administration of dose; type: functional, organism-based
Rattus norvegicus [7] = experiment: Conc in muscle of male rat 0.75h after administration of dose; type: functional, organism-based; settings: Muscle tissue
Rattus norvegicus [8] = experiment: Conc in muscle of male rat 1.5h after administration of dose; type: functional, organism-based; settings: Muscle tissue
Rattus norvegicus [9] = experiment: Conc in muscle of male rat 10h after administration of dose; type: functional, organism-based; settings: Muscle tissue
Rattus norvegicus [10] = experiment: Conc in muscle of male rat 4 hr after administration of dose; type: functional, organism-based; settings: Muscle tissue
Rattus norvegicus [11] = experiment: Conc in ovary of female rat 24 hr after administration of dose; type: functional, organism-based; settings: Female gonad
Rattus norvegicus [12] = experiment: Conc in ovary of female rat 3h after administration of dose; type: functional, organism-based; settings: Female gonad
Rattus norvegicus [13] = experiment: Conc in intestine of male rat 2 hr after administration of dose; type: functional, organism-based
Rattus norvegicus [14] = experiment: Conc in kidney of male rat 24 hr after administration of dose; type: functional, organism-based
Rattus norvegicus [15] = experiment: Conc in kidney of male rat 3h after administration of dose; type: functional, organism-based
Rattus norvegicus [16] = experiment: Conc in kidney of male rat after 0.75h administration of dose; type: functional, organism-based
Rattus norvegicus [17] = experiment: Conc in liver of male rat 0.50 hr after administration of dose; type: functional, organism-based
Rattus norvegicus [18] = experiment: Conc in liver of male rat 1.5h after administration of dose; type: functional, organism-based
Rattus norvegicus [19] = experiment: Conc in ovary of female rat 6 hr after administration of dose; type: functional, organism-based; settings: Female gonad
Rattus norvegicus [20] = experiment: Conc in serum of female rat 0.25 hr after administration of dose; type: functional, organism-based
Rattus norvegicus [21] = experiment: Conc in serum of female rat 0.75h after administration of dose; type: functional, organism-based
Rattus norvegicus [22] = experiment: Conc in serum of female rat 1 hr after administration of dose; type: functional, organism-based
Rattus norvegicus [23] = experiment: Conc in serum of female rat 3h after administration of dose; type: functional, organism-based
Rattus norvegicus [24] = experiment: Conc in serum of male rat 0.50 hr after administration of dose; type: functional, organism-based
Rattus norvegicus [25] = experiment: Conc in serum of female rat 2 hr after administration of dose; type: functional, organism-based
Rattus norvegicus [26] = experiment: Conc in lung of male rat 0.75h after administration of dose; type: functional, organism-based
Rattus norvegicus [27] = experiment: Conc in lung of male rat 4 hr after administration of dose; type: functional, organism-based
Rattus norvegicus [28] = experiment: Conc in lung of male rat 6 hr after administration of dose; type: functional, organism-based
Rattus norvegicus [29] = experiment: Conc in brain of male rat 0.50 hr after administration of dose; type: functional, organism-based
Rattus norvegicus [30] = experiment: Conc in brain of male rat 1.5h after administration of dose; type: functional, organism-based
Rattus norvegicus [31] = experiment: Conc in brain of male rat 24 hr after administration of dose; type: functional, organism-based
Rattus norvegicus [32] = experiment: Conc in brain of male rat 6 hr after administration of dose; type: functional, organism-based
Rattus norvegicus [33] = experiment: Conc in intestine of male rat 24 hr after administration of dose; type: functional, organism-based
Staphylococcus aureus = experiment: Inhibition of growth of Staphylococcus aureus (CN491) measured as MIC compound/MIC Trimethoprim; type: functional
Rattus norvegicus [34] = experiment: Conc in stomach of male rat 24 hr after administration of dose; type: functional, organism-based

For `CC(C)c1cc(Cc2cnc(N)nc2N)cc(C(C)C)c1O`, the MIC ratio (Escherichia coli) was 300, the MIC ratio (Klebsiella aerogenes) was 100 and the Concentration (Rattus norvegicus [1]) was 0.92 µg/g. The Concentration (Rattus norvegicus [2]) was 0.08 µg/g, the Concentration (Rattus norvegicus [3]) was 304 µg/g and the Concentration (Rattus norvegicus [4]) was 97.1 µg/g. It also gave a Concentration (Rattus norvegicus [5]) of 2 µg/g, a Concentration (Rattus norvegicus [6]) of 8.92 µg/g and a Concentration (Rattus norvegicus [7]) of 2.31 µg/g. For the same compound, the Concentration (Rattus norvegicus [8]) was 1.84 µg/g, the Concentration (Rattus norvegicus [9]) was 0.13 µg/g and the Concentration (Rattus norvegicus [10]) was 0.67 µg/g. For the same compound, the Concentration (Rattus norvegicus [11]) was 0.08 µg/g, the Concentration (Rattus norvegicus [12]) was 2.06 µg/g and the Concentration (Rattus norvegicus [13]) was 11.6 µg/g. For the same compound, the Concentration (Rattus norvegicus [14]) was 0.5 µg/g, the Concentration (Rattus norvegicus [15]) was 4.11 µg/g and the Concentration (Rattus norvegicus [16]) was 10.3 µg/g. It also gave a Concentration (Rattus norvegicus [17]) of 29.9 µg/g, a Concentration (Rattus norvegicus [18]) of 13.5 µg/g and a Concentration (Rattus norvegicus [19]) of 0.71 µg/g. The Concentration (Rattus norvegicus [20]) was 0.49 µg/g, the Concentration (Rattus norvegicus [21]) was 1.44 µg/g and the Concentration (Rattus norvegicus [22]) was 1.09 µg/g. It also gave a Concentration (Rattus norvegicus [23]) of 0.61 µg/g, a Concentration (Rattus norvegicus [24]) of 1.12 µg/g and a Concentration (Rattus norvegicus [25]) of 0.68 µg/g. For the same compound, the Concentration (Rattus norvegicus [26]) was 11.3 µg/g, the Concentration (Rattus norvegicus [27]) was 2.3 µg/g and the Concentration (Rattus norvegicus [28]) was 0.52 µg/g. The Concentration (Rattus norvegicus [29]) was 0.58 µg/g, the Concentration (Rattus norvegicus [30]) was 0.65 µg/g and the Concentration (Rattus norvegicus [31]) was 0.004 µg/g. It also gave a Concentration (Rattus norvegicus [32]) of 0.05 µg/g, a Concentration (Rattus norvegicus [33]) of 0.85 µg/g and an MIC ratio (Staphylococcus aureus) of 10. For the same compound, the Concentration (Rattus norvegicus [34]) was 1.49 µg/g.
